# In patent US20250136650A1, “COMPOSITIONS AND METHODS FOR DNA BINDING AND TRANSCRIPTIONAL REGULATION” (THE UNIVERSITY OF CHICAGO, priority 2021, published 2025):
# Entries after “also recorded” stand apart in the source; their conditions may differ.
# Experiments:
# [1] = test system: HIF1α; experiment: Western blot of HIF1α under hypoxia, HeLa; type: cell-based, human; settings: hypoxia 1% O2 6 hr
# Description: To study the effects of STR22 on hypoxia-induced gene transcription factor DNA binding and target gene expression, the induction of HIF1α and downstream HRE-target genes like VEGFA, PDK1, PGK1 and GLUT1 in response to acute hypoxia (e.g., 1% 02 for 6 hr) was validated.
# Immunoblotting. Following indicated treatments, cells were first washed with ice-cold PBS. Whole-cell extracts were prepared by directly lysing cells with Laemmli sample buffer (Bio-rad, 1610747) supplemented with 2-Mercaptoethanol (Gibco, 21985023), protease inhibitor (Roche, 4693159001), PMSF (Roche, 10837091001) and phosphatase inhibitor (GB-450) at 4° C. Finally, protein samples were boiled at 95° C. for 5 mins. Western blotting was performed using antibodies for XBP1 (Biolegend, 9D11A43), HIF1α (Novus Biologicals, NB100-479), GAPDH (Santa Cruz Biotech, sc-32233) and α-tubulin (Invitrogen, MA1-19401) were used. Blots were imaged using Li—COR Odyssey Fc.
# [2] = test system: AP-1 site; experiment: EMSA, direct binding to AP-1 DNA probe
# Source text: The DNA binding dimer STR22 (shown in FIG. 21 and FIG. 27) was synthesized. STR22 was subjected to EMSA to measure binding to either the UPR element (UPRE) or AP-1 binding site (AP-1).
# bZIP transcriptional repressors FJSTR7 (shown in FIGS. 42 and 45), FJSTR71 (shown in FIGS. 52 and 53), and FJSTR72 (shown in FIGS. 52 and 54), were generated and tested.
# Electrophoretic Mobility Shift Assays (EMSAs): For direct DNA binding experiments, STRs were serially diluted at 10× concentration in water and then 1 μL of STR solution was added to 9 μL of 5 nM IRD700-labeled DNA probe bearing either a UPRE or AP-1 motif in a final 1×binding buffer (20 mM HEPES pH 8.0, 150 mM NaCl, 5% glycerol, 1 mM EDTA, 2 mM MgCl2, 0.5 mg/mL BSA, 1 mM DTT, 0.05% NP-40). Samples were incubated for 1 hr at RT. 5 μL of each reaction was loaded on an 8% acrylamide, 0.5×TBE gel equilibrated to 4° C. Samples were resolved for 60 min at 110 V and 4° C. with 0.5×TBE+1 mM MgCl2 running buffer. Gels were pre-run at 110 V for 15 min prior to sample loading. For competition experiments, 30 or 60 nM STRs and 5 nM labeled UPRE probe were incubated with 0, 7.8, 13, 21.6, 36, 60 or 100 nM unlabeled competitor oligo for 1 hr at RT. […] ImageJ was used to quantify band intensity and the fraction of bound DNA was calculated by dividing the band intensity of bound DNA by the band intensity of free DNA from the vehicle treated lane. […]
# [3] = LCMS detection of STR22 in blood after injection; type: in vivo, mouse; settings: healthy mice, IP and IV injections
# Description: STR22 at various provided concentrations were added to 10× diluted plasma then added to 4× volume of methanol, centrifuged and used for LCMS detection (FIG. 112). […] Blood was collected through submandibular bleed at different time points and analyze via established extraction and LCMS methods. […] Body weight change after a single injection of STR22 through intravenous (IV) or subcutaneous (Sub) was also measured.
substance,measurement,setting,value
XBP1-derived stapled dimer: RRK^KNR^AAQTARDRKKA#LSELEQQVVDLE linked to RRK^KNR^AAQTARDRKKARLSEL#QQVVDLE; FIG. 27 [STR22],induction of HIF1α protein,[1],did not affect the induction of HIF1α protein; also recorded: not affected
same,binding to control AP1 motif oligonucleotide,[2],undetectable binding
same,detection in blood,[3],can be detected in blood
